Patent US20240261351A1, “COMPOSITIONS AND METHODS FOR THE TREATMENT OF BONE AND JOINT DISEASES” (priority 2021, published 2024)
Values joined by “and” are separate entries in the source; they are usually repeats but may differ in a detail not shown here. Equal values may be shown once.

Tests used:
[1] = Strontium blood levels by Inductively Coupled Plasma Mass Spectrometry; details: for maximum strontium blood level: 10-15 g strontium salt daily split morning and evening plus 50 g Aquamin daily as top dressing for 14 days, blood drawn in the morning before feeding, individual horses
Experimental: Approximately 4 months into the trial, strontium blood levels were measured in a small group of horses. […] (Li et al., 2009). To measure strontium blood levels, Inductively Coupled Plasma Mass Spectrometry was used (Eurofins Lab, (Wisconsin USA)).
A group of six horses were utilized and were administered the subject compositions for 14 days total. The compositions were added to morning and evening feed as a top dressing. All subjects received 50 g of “Aquamin” daily given as 25 g in morning and 25 g in evening. Three horses received Strontium ranelate at 10 g, 12 g, and 15 g daily split between the morning and evening. Three horses received Strontium citrate at 10 g, 12 g, and 14 g daily split morning and evening. Blood samples were taken a day 0, 1, 5, 8, 12, and 15 days. Bloods were drawn first thing in the morning before any supplements were fed.

[2] = human, receiving 2 grams per day (AusProtos, 2013); cited from earlier work

| Compound | maximum strontium blood level [1] | strontium blood levels [2] [µmol/L] | strontium blood levels compared with strontium ranelate ([1]; six-horse 14 day study with 50 g Aquamin daily) |
| --- | --- | --- | --- |
| N#Cc1c(N(CC(=O)[O-])CC(=O)[O-])sc(C(=O)[O-])c1CC(=O)[O-].[Sr+2].[Sr+2] [strontium ranelate, reference compound] | about 7.5 μmole/L | 140 to 150 | – |
| strontium citrate | 9.3 µmol/L and 9.5 µmol/L | – | comparable |
